Values of other authors in patent US20080113031A1, “Minicapsule Formulations” (priority 2004, published 2008).

B1: PAL from Rhodosporidium toruloides: phenylalanine ammonia-lyase from Rhodosporidium toruloides (protein, UniProt P11544 1-716, looked up)
Phenylalanine/tyrosine …: MAPSLDSISHSFANGVASAKQAVNGASTNLAVAGSHLPTTQVTQVDIVEKMLAAPTDSTLELDGYSLNLGDVVSAARKGRPVRVKDSDEIRSKIDKSVEFLRSQLSMSVYGVTTGFGGSADTRTEDAISLQKALLEHQLCGVLPSSFDSFRLGRGLENSLPLEVVRGAMTIRVNSLTRGHSAVRLVVLEALTNFLNHGITPIVPLRGTISASGDLSPLSYIAAAISGHPDSKVHVVHEGKEKILYAREAMALFNLEPVVLGPKEGLGLVNGTAVSASMATLALHDAHMLSLLSQSLTAMTVEAMVGHAGSFHPFLHDVTRPHPTQIEVAGNIRKLLEGSRFAVHHEEEVKVKDDEGILRQDRYPLRTSPQWLGPLVSDLIHAHAVLTIEAGQSTTDNPLIDVENKTSHHGGNFQAAAVANTMEKTRLGLAQIGKLNFTQLTEMLNAGMNRGLPSCLAAEDPSLSYHCKGLDIAAAAYTSELGHLANPVTTHVQPAEMANQAVNSLALISARRTTESNDVLSLLLATHLYCVLQAIDLRAIEFEFKKQFGPAIVSLIDQHFGSAMTGSNLRDELVEKVNKTLAKRLEQTNSYDLVPRWHDAFSFAAGTVVEVLSSTSLSLAAVNAWKVAAAESAISLTRQVRETFWSAASTSSPALSYLSPRTQILYAFVREELGVKARRGDVFLGKQEVTIGSNVSKIYEAIKSGRINNVLLKMLA

Experiments:
[1] = not given; remark: listed apart in the source

Molecule | solubility in water | activity at pH 2.2 [1]
COCCOC(=O)C1=C(C)NC(C)=C(C(=O)OC(C)C)C1c1cccc([N+](=O)[O-])c1 (centres unmarked) [Nimodipine] | practically insoluble | 
B1 |  | no activity
